Measurements: patent US12104181B2, “Compositions and methods for treating viral infections targeting TRIM7” (THE BOARD OF REGENTS OF THE UNIVERSITY OF TEXAS SYSTEM, priority 2021, dated 2024)
Residues, ends and D or L forms follow the SMILES beside them. *: point of attachment. Cbz = O=C(OCc1ccccc1)*

Columns and labels:
[1] = test system: coxsackievirus B3 (CVB3-GFP); format: cell-based; conditions: HeLa cells, replicate R1; for Percent Infected R1: GFP-positive cells within RFP-positive gate
CVB3 HA-2BC = experiment: Viral protein degradation in co-transfected 293T cells, Western blot; format: cell-based; conditions: MG132 10 μM at 24 hours post-transfection for 6 hours
Description: Since TRIM7 binds 2C and 2BC, it was next tested whether TRIM7 targets either protein for degradation. […] 293T cells were co-transfected with plasmids expressing HA-tagged CVB3 viral proteins and 3×Flag-tagged TRIM7 (TRIM7-3F) or Fluc-expressing vector. […] Moreover, proteasome inhibition by MG132 restored HA-2BC protein in the presence of TRIM7 (FIG. 4F). Similar results were obtained with 2BC from other TRIM7-targeted enteroviruses, including EV71 and EVD68, whereas 2BC from TRIM7-insensitive MenV was unaffected (FIGS. 4G-4H). Accordingly, 2BC from EV71, but not MenV, interacted with TRIM7 in pulldown assays (FIG. 4I).
Protein lysate preparation and Western blot. Tissue culture cells were lysed in Nonidet P-40 (NP-40) buffer (50 mM Tris pH 7.4, 150 mM NaCl, 1% (v/v) NP-40, 1 mM EDTA, protease inhibitor cocktail) and incubated on ice for 30 min, followed by centrifugation at 13,000 rpm for 20 min at 4° C. For mouse tissue lysates, fresh tissues were collected in 2 ml round-bottom Eppendorf tubes containing NP40 lysis buffer and cut to small pieces using scissors. Then the tissues were homogenized with a Bullet Blender homogenizer (Next Advanced Inc., Averill Park, NY), and centrifuged at 13,000 rpm for 20 min at 4° C. Western blot analyses were performed as previously described (Mar et al., 2018).

CVB3-GFP = format: cell-based, coxsackievirus B3; conditions: for CVB3 infectivity in control HeLa-Fluc cells: 1 MOI, 8 hpi
[2] = test system: vesicular stomatitis virus; format: cell-based

Row | Compound | Percent Infected R1 [1] | Z score R1 [1] | CVB3 infectivity in control HeLa-Fluc cells (CVB3-GFP) | other results
1 | RNF40: human RING type E3 ligase expressed from lentiviral vector | 97.1% | 0.11 |  | 
2 | RNF20: human RING type E3 ligase expressed from lentiviral vector | 91.8% | 0.041 |  | 
3 | TRIM25: human RING type E3 ligase expressed from lentiviral vector | 53.7% | −0.444 |  | 
4 | CC(C)C[C@@H](C=O)NC(=O)[C@H](CC(C)C)NC(=O)[C@H](CC(C)C)NC(=O)OCc1ccccc1 [MG132] (Cbz-Leu-Leu-Leu-aldehyde) |  |  | modestly impaired | HA-2BC protein in the presence of TRIM7 (CVB3 HA-2BC): restored; rescue of CVB3-GFP infection in TRIM7-expressing cells (CVB3-GFP): striking rescue; rescue of viral replication from transfected CVB3-GFP RNA (CVB3-GFP): rescued; rescue of infection in TRIM7-expressing cells, late addition (CVB3-GFP; added at later time points (post primary translation, >4 hours)): failed to rescue
5 | CO/C1=C\C(C)=C\[C@@H](C)[C@@H](O)[C@@H](C)C/C(C)=C/C=C/[C@H](OC)[C@@H]([C@@H](C)[C@@H](O)[C@H](C)[C@@]2(O)C[C@@H](O)[C@H](C)[C@@H](C(C)C)O2)OC1=O [bafilomycin A1] |  |  | no impact | replication of vesicular stomatitis virus [2]: inhibited
6 | RNF126: human RING type E3 ligase expressed from lentiviral vector | 94.5% | 0.08 |  | 
7 | MKRN2: human RING type E3 ligase expressed from lentiviral vector | 93.3% | 0.06 |  | 
8 | TRIM21: human RING type E3 ligase expressed from lentiviral vector | 65.7% | −0.291 |  | 
9 | RAD18: human RING type E3 ligase expressed from lentiviral vector | 91.2% | 0.033 |  | 
10 | TRIM5: human RING type E3 ligase expressed from lentiviral vector | 56.2% | −0.412 |  | 
11 | c1ccc(CNc2nc(NCc3ccccc3)c3ccccc3n2)cc1 [DBeQ] |  |  | modestly reduced | rescue of CVB3-GFP infection in TRIM7-expressing cells (CVB3-GFP): failed to rescue
12 | RNF5: human RING type E3 ligase expressed from lentiviral vector | 96.1% | 0.1 |  | 
13 | CCN(CC)CCCC(C)Nc1ccnc2cc(Cl)ccc12 (centres unmarked) [chloroquine] |  |  | no impact | replication of vesicular stomatitis virus [2]: inhibited
